Experimental data as given in PubChem BioAssay (NCI).
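GI50 marks 50% less growth. TGI marks complete inhibition of growth.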

How the values were obtained:
Assay in all cases: NCI anticancer screen, dose series, 384-well format
BT-549 breast = tested on: BT-549 breast
SK-OV-3 ovarian = tested on: SK-OV-3 ovarian
UO-31 renal = tested on: UO-31 renal
SW-620 colon = tested on: SW-620 colon
A498 renal = tested on: A498 renal
CCRF-CEM leukemia = tested on: CCRF-CEM leukemia
COLO 205 colon = tested on: COLO 205 colon
DU-145 prostate = tested on: DU-145 prostate
IGROV1 ovarian = tested on: IGROV1 ovarian
SNB-75 CNS = tested on: SNB-75 CNS
OVCAR-4 ovarian = tested on: OVCAR-4 ovarian
MCF7 breast = tested on: MCF7 breast
NCI-H522 lung = tested on: NCI-H522 lung

`CNC(=O)c1cc(Oc2ccc(NC(=O)Nc3ccc(Cl)c(C(F)(F)F)c3)cc2)ccn1` showed a GI50 (BT-549 breast) of 2.29 µM, a TGI (BT-549 breast) of 4.04 µM and a GI50 (SK-OV-3 ovarian) of 3.93 µM. It also gave a TGI (SK-OV-3 ovarian) of 10.4 µM, a GI50 (UO-31 renal) of 0.748 µM and a TGI (UO-31 renal) of 1.44 µM. It also gave a GI50 (SW-620 colon) of 2.17 µM, a TGI (SW-620 colon) of 4.54 µM and a GI50 (A498 renal) of 2.37 µM. It also gave a TGI (A498 renal) of 4.74 µM, a GI50 (CCRF-CEM leukemia) of 1.59 µM and a TGI (CCRF-CEM leukemia) of 2.95 µM. The GI50 (COLO 205 colon) was 2.19 µM, the TGI (COLO 205 colon) was 4.66 µM and the GI50 (DU-145 prostate) was 2.69 µM. The TGI (DU-145 prostate) was 6.57 µM, the GI50 (IGROV1 ovarian) was 2.46 µM and the TGI (IGROV1 ovarian) was 5.91 µM. It also gave a GI50 (SNB-75 CNS) of 3.21 µM, a TGI (SNB-75 CNS) of 5.92 µM and a GI50 (OVCAR-4 ovarian) of 3.59 µM. The TGI (OVCAR-4 ovarian) was 6.84 µM, the GI50 (MCF7 breast) was 2.14 µM and the TGI (MCF7 breast) was 5 µM. The GI50 (NCI-H522 lung) was 2.04 µM and the TGI (NCI-H522 lung) was 4.71 µM.
